Experimental data from the supplement of paper PMC10307832.

Experiments:
Test in all cases: relative viability (nuclei count vs DMSO), 5 days (fraction); higher = more cells survive
HCC-44 = tested on: HCC-44
Procedure, shortened: (§1)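 Dosing by pin tool came one day after lung cancer cell lines were seeded in 1536-well plates, using either one drug or a fixed anchor-drug dose plus five library-drug doses (not always all listed) in √10 steps. After 5 days, nuclei were counted on 4× images. Relative viability is treated-well nuclei count divided by vehicle-well nuclei count, and values are medians of duplicate plates.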

NCI-H596 = tested on: NCI-H596
Procedure, shortened: as §1

HCC-366 = tested on: HCC-366
Procedure, shortened: as §1

NCI-H647 = tested on: NCI-H647
Procedure, shortened: as §1

NCI-H1944 = tested on: NCI-H1944
Procedure, shortened: as §1

NCI-H322M = tested on: NCI-H322M
Procedure, shortened: as §1

NCI-H2023 = tested on: NCI-H2023
Procedure, shortened: as §1

NCI-H1734 = tested on: NCI-H1734
Procedure, shortened: as §1

NCI-H2228 = tested on: NCI-H2228
Procedure, shortened: as §1

NCI-H2087 = tested on: NCI-H2087
Procedure, shortened: as §1

PC-3 [JPC-3] = tested on: PC-3 [JPC-3]
Procedure, shortened: as §1

NCI-H1651 = tested on: NCI-H1651
Procedure, shortened: as §1

SK-LU-1 = tested on: SK-LU-1
Procedure, shortened: as §1

NCI-H1648 = tested on: NCI-H1648
Procedure, shortened: as §1

LOU-NH91 = tested on: LOU-NH91
Procedure, shortened: as §1

HCC-78 = tested on: HCC-78
Procedure, shortened: as §1

NCI-H2170 = tested on: NCI-H2170
Procedure, shortened: as §1

LK-2 = tested on: LK-2
Procedure, shortened: as §1

NCI-H2085 = tested on: NCI-H2085
Procedure, shortened: as §1

NCI-H1437 = tested on: NCI-H1437
Procedure, shortened: as §1

PC-14 = tested on: PC-14
Procedure, shortened: as §1

Work on Cc1cn(-c2cc(NC(=O)c3ccc(C)c(Nc4nccc(-c5cccnc5)n4)c3)cc(C(F)(F)F)c2)cn1 [Nilotinib] + Nc1nc2[nH]cc(CCc3ccc(C(=O)N[C@@H](CCC(=O)O)C(=O)O)cc3)c2c(=O)[nH]1 [Pemetrexed] (partner 0.2 µM) yielded a relative viability (HCC-44; first compound 0.001 µM) of 0.662, a relative viability (HCC-44; first compound 0.003162 µM) of 0.574 and a relative viability (HCC-44; first compound 0.01 µM) of 0.613. The relative viability (HCC-44; first compound 0.1 µM) was 0.66, the relative viability (NCI-H596; first compound 0.001 µM) was 0.49 and the relative viability (NCI-H596; first compound 0.003162 µM) was 0.423. For the same compound, the relative viability (NCI-H596; first compound 0.01 µM) was 0.491, the relative viability (NCI-H596; first compound 0.03162 µM) was 0.513 and the relative viability (NCI-H596; first compound 0.1 µM) was 0.371. The relative viability (HCC-366; first compound 0.001 µM) was 0.157, the relative viability (HCC-366; first compound 0.003162 µM) was 0.129 and the relative viability (HCC-366; first compound 0.01 µM) was 0.163. It also gave a relative viability (HCC-366; first compound 0.03162 µM) of 0.106, a relative viability (HCC-366; first compound 0.1 µM) of 0.115 and a relative viability (NCI-H647; first compound 0.001 µM) of 0.158. The relative viability (NCI-H647; first compound 0.003162 µM) was 0.158, the relative viability (NCI-H647; first compound 0.01 µM) was 0.118 and the relative viability (NCI-H647; first compound 0.03162 µM) was 0.138. The relative viability (NCI-H647; first compound 0.1 µM) was 0.118, the relative viability (NCI-H1944; first compound 0.001 µM) was 0.56 and the relative viability (NCI-H1944; first compound 0.003162 µM) was 0.519. For the same compound, the relative viability (NCI-H1944; first compound 0.01 µM) was 0.566, the relative viability (NCI-H1944; first compound 0.03162 µM) was 0.578 and the relative viability (NCI-H1944; first compound 0.1 µM) was 0.265. The relative viability (NCI-H322M; first compound 0.001 µM) was 0.757, the relative viability (NCI-H322M; first compound 0.003162 µM) was 0.774 and the relative viability (NCI-H322M; first compound 0.01 µM) was 0.576. It also gave a relative viability (NCI-H322M; first compound 0.03162 µM) of 0.593, a relative viability (NCI-H322M; first compound 0.1 µM) of 0.645 and a relative viability (NCI-H2023; first compound 0.001 µM) of 0.213. The relative viability (NCI-H2023; first compound 0.003162 µM) was 0.264, the relative viability (NCI-H2023; first compound 0.01 µM) was 0.223 and the relative viability (NCI-H2023; first compound 0.03162 µM) was 0.189. The relative viability (NCI-H2023; first compound 0.1 µM) was 0.14, the relative viability (NCI-H1734; first compound 0.001 µM) was 0.443 and the relative viability (NCI-H1734; first compound 0.003162 µM) was 0.346. For the same compound, the relative viability (NCI-H1734; first compound 0.01 µM) was 0.364, the relative viability (NCI-H1734; first compound 0.03162 µM) was 0.388 and the relative viability (NCI-H1734; first compound 0.1 µM) was 0.31. It also gave a relative viability (NCI-H2228; first compound 0.001 µM) of 0.358, a relative viability (NCI-H2228; first compound 0.003162 µM) of 0.357 and a relative viability (NCI-H2228; first compound 0.01 µM) of 0.282. It also gave a relative viability (NCI-H2228; first compound 0.03162 µM) of 0.216, a relative viability (NCI-H2228; first compound 0.1 µM) of 0.165 and a relative viability (NCI-H2087; first compound 0.001 µM) of 0.67. For the same compound, the relative viability (NCI-H2087; first compound 0.003162 µM) was 0.745, the relative viability (NCI-H2087; first compound 0.01 µM) was 0.555 and the relative viability (NCI-H2087; first compound 0.03162 µM) was 0.614. For the same compound, the relative viability (NCI-H2087; first compound 0.1 µM) was 0.341, the relative viability (PC-3 [JPC-3]; first compound 0.001 µM) was 1.02 and the relative viability (PC-3 [JPC-3]; first compound 0.01 µM) was 0.889. For the same compound, the relative viability (PC-3 [JPC-3]; first compound 0.03162 µM) was 1.05, the relative viability (PC-3 [JPC-3]; first compound 0.1 µM) was 0.599 and the relative viability (NCI-H1651; first compound 0.001 µM) was 0.571. The relative viability (NCI-H1651; first compound 0.003162 µM) was 0.616, the relative viability (NCI-H1651; first compound 0.01 µM) was 0.732 and the relative viability (NCI-H1651; first compound 0.03162 µM) was 0.556. The relative viability (NCI-H1651; first compound 0.1 µM) was 0.249, the relative viability (SK-LU-1; first compound 0.001 µM) was 0.867 and the relative viability (SK-LU-1; first compound 0.003162 µM) was 1.09. It also gave a relative viability (SK-LU-1; first compound 0.01 µM) of 0.949, a relative viability (SK-LU-1; first compound 0.03162 µM) of 0.524 and a relative viability (SK-LU-1; first compound 0.1 µM) of 0.415. It also gave a relative viability (NCI-H1648; first compound 0.001 µM) of 0.792, a relative viability (NCI-H1648; first compound 0.003162 µM) of 0.685 and a relative viability (NCI-H1648; first compound 0.01 µM) of 0.726. It also gave a relative viability (NCI-H1648; first compound 0.03162 µM) of 0.506, a relative viability (NCI-H1648; first compound 0.1 µM) of 0.685 and a relative viability (LOU-NH91; first compound 0.001 µM) of 0.376. For the same compound, the relative viability (LOU-NH91; first compound 0.003162 µM) was 1.11, the relative viability (LOU-NH91; first compound 0.01 µM) was 0.374 and the relative viability (LOU-NH91; first compound 0.03162 µM) was 0.384. The relative viability (LOU-NH91; first compound 0.1 µM) was 0.403, the relative viability (HCC-78; first compound 0.001 µM) was 0.897 and the relative viability (HCC-78; first compound 0.003162 µM) was 0.654. The relative viability (HCC-78; first compound 0.01 µM) was 0.836, the relative viability (HCC-78; first compound 0.03162 µM) was 0.8 and the relative viability (HCC-78; first compound 0.1 µM) was 0.935. For the same compound, the relative viability (NCI-H2170; first compound 0.001 µM) was 0.265, the relative viability (NCI-H2170; first compound 0.003162 µM) was 0.261 and the relative viability (NCI-H2170; first compound 0.03162 µM) was 0.252. It also gave a relative viability (NCI-H2170; first compound 0.1 µM) of 0.315, a relative viability (LK-2; first compound 0.001 µM) of 0.184 and a relative viability (LK-2; first compound 0.003162 µM) of 0.3. It also gave a relative viability (LK-2; first compound 0.01 µM) of 0.332, a relative viability (LK-2; first compound 0.03162 µM) of 0.193 and a relative viability (LK-2; first compound 0.1 µM) of 0.225. For the same compound, the relative viability (NCI-H2085; first compound 0.001 µM) was 0.981, the relative viability (NCI-H2085; first compound 0.003162 µM) was 0.907 and the relative viability (NCI-H2085; first compound 0.01 µM) was 1. The relative viability (NCI-H2085; first compound 0.03162 µM) was 0.932, the relative viability (NCI-H2085; first compound 0.1 µM) was 0.562 and the relative viability (NCI-H1437; first compound 0.001 µM) was 0.28. It also gave a relative viability (NCI-H1437; first compound 0.003162 µM) of 0.34, a relative viability (NCI-H1437; first compound 0.01 µM) of 0.343 and a relative viability (NCI-H1437; first compound 0.03162 µM) of 0.276. For the same compound, the relative viability (NCI-H1437; first compound 0.1 µM) was 0.311, the relative viability (PC-14; first compound 0.001 µM) was 0.139 and the relative viability (PC-14; first compound 0.003162 µM) was 0.19. It also gave a relative viability (PC-14; first compound 0.01 µM) of 0.0904, a relative viability (PC-14; first compound 0.03162 µM) of 0.0585 and a relative viability (PC-14; first compound 0.1 µM) of 0.0757.
